Patent US8633005B2, “Isocyclomaltooligosaccharide(s), isocyclomaltooligosaccharide-forming enzyme, their preparation and uses” (Hayashibara Co., Ltd., priority 2004, dated 2014)

Biological target: T1, salivary α-amylase (Homo sapiens, UniProt P0DUB6)
T1 sequence (P0DUB6 16-511): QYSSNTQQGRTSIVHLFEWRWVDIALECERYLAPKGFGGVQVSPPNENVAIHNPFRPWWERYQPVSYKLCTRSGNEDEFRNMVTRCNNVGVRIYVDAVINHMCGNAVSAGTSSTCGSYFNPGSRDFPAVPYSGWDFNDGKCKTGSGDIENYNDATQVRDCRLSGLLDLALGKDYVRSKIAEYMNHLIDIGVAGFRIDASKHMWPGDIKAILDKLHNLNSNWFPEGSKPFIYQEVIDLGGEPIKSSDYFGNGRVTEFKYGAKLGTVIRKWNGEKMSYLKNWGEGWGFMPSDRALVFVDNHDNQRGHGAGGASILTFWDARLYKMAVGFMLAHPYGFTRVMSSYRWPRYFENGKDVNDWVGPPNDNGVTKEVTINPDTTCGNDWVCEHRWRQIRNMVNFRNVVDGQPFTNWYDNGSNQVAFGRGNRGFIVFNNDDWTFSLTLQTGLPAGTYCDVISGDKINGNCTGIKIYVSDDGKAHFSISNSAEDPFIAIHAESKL
Text: 43, 23-29 (1990), the digestibility of ICM by salivary α-amylase, artificial gastric juice, pancreas amylase, and small intestinal enzymes were investigated using ICG5, used in Experiment 15. […] In Table 18, the digestion (%) means a value calculated by the formula: Digestion (%)=(The amount of reducing saccharides/The amount of the total saccharides)×100 , in respective reaction described above.

In the case of `OCC1OC2OC3C(CO)OC(OC4C(CO)OC(OC5C(CO)OC(OCC6OC(OC1C(O)C2O)C(O)C(O)C6O)C(O)C5O)C(O)C4O)C(O)C3O` [ICG5, cyclo{→6)-α-D-glucopyranosyl-(1→4)-α-D-glucopyranosyl-(1→4)-α-D-glucopyranosyl-(1→4)-.α-D-glucopyranosyl-(1→4)α-D-glucopyranosyl-(1→}], the Digestion is reported as 0%.
